# Results taken from US20170232083A1, “METHODS OF DIAGNOSIS AND TREATMENT OF CELIAC DISEASE IN CHILDREN” (priority 2014, published 2017).
# Experiments:
# [1] = tested on: PBMC (polyclonal gluten-specific T cells) of paediatric and adult CD patients; conditions: corresponding adult data shown for comparison (14); cited from earlier work
# [2] = tested on: PBMC (polyclonal gluten-specific T cells) of paediatric and adult CD patients; assay: IFN-γ ELISpot of PBMC after 3 day oral wheat challenge (SFU, % of maximal peptide response, dominance scores, EC50; Examples 5-6); assay type: cell-based, human; conditions: for Dominance score 3-5yrs (n = 9): CD children 3-5yrs, n = 9, following wheat challenge; for Dominance score 3-5yrs (n = 9) / Dominance score 6-10yrs (n = 10) / Dominance score 11-18yrs (n = 11): mean percentage of maximal peptide response; for Dominance score 6-10yrs (n = 10): CD children 6-10yrs, n = 10, following wheat challenge; for Dominance score 11-18yrs (n = 11): CD children 11-18yrs, n = 11, following wheat challenge; for Dominance score Mean all ages: CD children, following wheat challenge (Table 9); for dominance hierarchy across all age groupings: Example 5; for dominance hierarchy across all age groups: Example 6; for Dominance scores 3-5 yrs: children with celiac disease 3-5 yrs after wheat challenge (Table 14); for Dominance scores 6-10 yrs: children with celiac disease 6-10 yrs after wheat challenge (Table 14); for Dominance scores 11-18 yrs: children with celiac disease 11-18 yrs after wheat challenge (Table 14); for Dominance scores Mean all ages: mean of all subjects (Table 14); for IFN-γ ELISpot response: after oral wheat challenge
# [3] = patient A, 11-17 yrs, cut-off 10 SFU
# [4] = patient D, max peptide 30.5 SFU
# [5] = patient E, H, 11-17 yrs, cut-off 10 SFU
# [6] = patient F, 11-17 yrs, cut-off 10 SFU
# [7] = patient G, 11-17 yrs, cut-off 10 SFU
# [8] = patient H (HLA-DQ2.5 homozygote), 3-5yrs, cut-off 10 SFU
# [9] = patient H, 11-17 yrs, cut-off 10 SFU
# [10] = patient ID not given, 11-17 yrs, cut-off 10 SFU
# [11] = patient ID not given, max peptide 95 SFU
# [12] = patient N, 3-5yrs, cut-off 10 SFU
# [13] = patient P, 11-17 yrs, cut-off 21.6 SFU
# [14] = patient Q, 11-17 yrs, cut-off 10 SFU
# [15] = patient U, H, 11-17 yrs, cut-off 10 SFU
# [16] = patient V, 6-10 yrs, cut-off 10 SFU
# [17] = patient Y, 6-10 yrs, cut-off 10 SFU
# [18] = patient eleven, 6-10 yrs, cut-off 10 SFU
# [19] = patient eleven, max peptide 57 SFU
# [20] = patient five, max peptide 48 SFU
# [21] = patient seven, 6-10 yrs, cut-off 10.5 SFU
# [22] = patient ten, 3-5yrs, cut-off 10 SFU
# [23] = patient three, 6-10 yrs, cut-off 10.5 SFU
# [24] = patient twelve, 11-17 yrs, cut-off 10 SFU
# [25] = patient two, 3-5yrs, cut-off 10 SFU
# [26] = patient two, max peptide 60 SFU
sequence,measurement,setting,value
LPYPQPELPYPQP [Peptide W01],Dominance scores 18+ yrs,[1],69
same,Dominance score 3-5yrs (n = 9),[2],68.5
same,Dominance score 6-10yrs (n = 10),[2],71.7
same,Dominance score 11-18yrs (n = 11),[2],51.0
same,Dominance score Mean all ages,[2],62.6
same,dominance hierarchy across all age groupings,[2],most dominant three peptides
same,dominance hierarchy across all age groups,[2],most dominant four peptides
same,Dominance scores 3-5 yrs,[2],65
same,Dominance scores 6-10 yrs,[2],72
same,Dominance scores 11-18 yrs,[2],51
same,Dominance scores Mean all ages,[2],62
same,IFN-γ ELISpot response,[2]; [3],2 SFU
same,Significant response as percentage of maximal peptide SFU,[2]; [4],′′ (21-40% = ′′)
same,IFN-γ ELISpot response,[2]; [5],111 SFU
same,Significant response as percentage of maximal peptide SFU,"[2]; patient E, max peptide 224 SFU",′′′ (41-70% = ′′′)
same,IFN-γ ELISpot response,[2]; [6],161 SFU
same,Significant response as percentage of maximal peptide SFU,"[2]; patient F, max peptide 178 SFU",+ (>70% = +)
same,IFN-γ ELISpot response,[2]; [7],7 SFU
same,IFN-γ ELISpot response,[2]; [8],33 SFU
same,IFN-γ ELISpot response,[2]; [9],10 SFU
same,Significant response as percentage of maximal peptide SFU,"[2]; patient H, max peptide 17 SFU",′′′ (41-70% = ′′′)
same,IFN-γ ELISpot response,[2]; [10],62 SFU
same,Significant response as percentage of maximal peptide SFU,[2]; [11],′′′ (41-70% = ′′′)
same,Significant response as percentage of maximal peptide SFU,"[2]; patient II, max peptide 15 SFU",+ (>70% = +)
same,Significant response as percentage of maximal peptide SFU,"[2]; patient J, max peptide 196 SFU",+ (>70% = +)
same,Significant response as percentage of maximal peptide SFU,"[2]; patient K, max peptide 53 SFU",+ (>70% = +)
same,Significant response as percentage of maximal peptide SFU,"[2]; patient L, max peptide 11 SFU",+ (>70% = +)
same,Significant response as percentage of maximal peptide SFU,"[2]; patient M, max peptide 48 SFU",′′′ (41-70% = ′′′)
same,IFN-γ ELISpot response,[2]; [12],6 SFU
same,IFN-γ ELISpot response,[2]; [13],36 SFU
same,Significant response as percentage of maximal peptide SFU,"[2]; patient P, max peptide 64 SFU",′′′ (41-70% = ′′′)
same,IFN-γ ELISpot response,[2]; [14],78 SFU
same,Significant response as percentage of maximal peptide SFU,"[2]; patient Q, max peptide 97 SFU",+ (>70% = +)
same,IFN-γ ELISpot response,[2]; [15],44 SFU
same,Significant response as percentage of maximal peptide SFU,"[2]; patient U, max peptide 81 SFU",′′′ (41-70% = ′′′)
same,IFN-γ ELISpot response,[2]; [16],35 SFU
same,Significant response as percentage of maximal peptide SFU,"[2]; patient V, max peptide 35 SFU",+ (>70% = +)
same,IFN-γ ELISpot response,[2]; [17],16 SFU
same,Significant response as percentage of maximal peptide SFU,"[2]; patient Y, max peptide 16 SFU",+ (>70% = +)
same,IFN-γ ELISpot response,[2]; [18],45 SFU
same,Significant response as percentage of maximal peptide SFU,[2]; [19],+ (>70% = +)
same,Significant response as percentage of maximal peptide SFU,[2]; [20],′′′ (41-70% = ′′′)
same,IFN-γ ELISpot response,"[2]; patient four, 3-5yrs, cut-off 10 SFU",44 SFU
same,Significant response as percentage of maximal peptide SFU,"[2]; patient four, max peptide 44 SFU",+ (>70% = +)
same,IFN-γ ELISpot response,[2]; [21],3 SFU
same,IFN-γ ELISpot response,[2]; [22],9 SFU
same,IFN-γ ELISpot response,[2]; [23],196 SFU
same,IFN-γ ELISpot response,[2]; [24],12 SFU
same,IFN-γ ELISpot response,[2]; [25],33 SFU
same,Significant response as percentage of maximal peptide SFU,[2]; [26],′′′ (41-70% = ′′′)
LQPFPQPELPFPQP [Peptide W06],Dominance scores 18+ yrs,[1],15
same,Dominance score 3-5yrs (n = 9),[2],53.1
same,Dominance score 6-10yrs (n = 10),[2],52.7
same,Dominance score 11-18yrs (n = 11),[2],53.8
same,Dominance score Mean all ages,[2],53.2
same,dominance hierarchy across all age groups,[2],most dominant four peptides
same,Dominance scores 3-5 yrs,[2],58
same,Dominance scores 6-10 yrs,[2],53
same,Dominance scores 11-18 yrs,[2],54
same,Dominance scores Mean all ages,[2],54
same,IFN-γ ELISpot response,[2]; [3],5 SFU
same,Significant response as percentage of maximal peptide SFU,[2]; [4],′′′ (41-70% = ′′′)
same,IFN-γ ELISpot response,[2]; [5],103 SFU
same,Significant response as percentage of maximal peptide SFU,"[2]; patient E, max peptide 224 SFU",′′′ (41-70% = ′′′)
same,IFN-γ ELISpot response,[2]; [6],107 SFU
same,Significant response as percentage of maximal peptide SFU,"[2]; patient F, max peptide 178 SFU",′′′′
same,IFN-γ ELISpot response,[2]; [7],7 SFU
same,IFN-γ ELISpot response,[2]; [8],41 SFU
same,IFN-γ ELISpot response,[2]; [9],16 SFU
same,Significant response as percentage of maximal peptide SFU,"[2]; patient H, max peptide 17 SFU",+ (>70% = +)
same,IFN-γ ELISpot response,[2]; [10],59 SFU
same,Significant response as percentage of maximal peptide SFU,[2]; [11],′′′ (41-70% = ′′′)
same,Significant response as percentage of maximal peptide SFU,"[2]; patient II, max peptide 15 SFU",+ (>70% = +)
same,Significant response as percentage of maximal peptide SFU,"[2]; patient J, max peptide 196 SFU",′′′ (41-70% = ′′′)
same,Significant response as percentage of maximal peptide SFU,"[2]; patient K, max peptide 53 SFU",′′ (21-40% = ′′)
same,Significant response as percentage of maximal peptide SFU,"[2]; patient M, max peptide 48 SFU",+ (>70% = +)
same,IFN-γ ELISpot response,[2]; [12],4 SFU
same,IFN-γ ELISpot response,[2]; [13],33 SFU
same,Significant response as percentage of maximal peptide SFU,"[2]; patient P, max peptide 64 SFU",′′′ (41-70% = ′′′)
same,IFN-γ ELISpot response,[2]; [14],65 SFU
same,Significant response as percentage of maximal peptide SFU,"[2]; patient Q, max peptide 97 SFU",′′′ (41-70% = ′′′)
same,IFN-γ ELISpot response,[2]; [15],54 SFU
same,Significant response as percentage of maximal peptide SFU,"[2]; patient U, max peptide 81 SFU",′′′′
same,IFN-γ ELISpot response,[2]; [16],22 SFU
same,Significant response as percentage of maximal peptide SFU,"[2]; patient V, max peptide 35 SFU",′′′ (41-70% = ′′′)
same,IFN-γ ELISpot response,[2]; [17],6 SFU
same,Significant response as percentage of maximal peptide SFU,"[2]; patient Z, max peptide 13 SFU",′′ (21-40% = ′′)
same,IFN-γ ELISpot response,[2]; [18],43 SFU
same,Significant response as percentage of maximal peptide SFU,[2]; [19],+ (>70% = +)
same,Significant response as percentage of maximal peptide SFU,[2]; [20],′′ (21-40% = ′′)
same,IFN-γ ELISpot response,[2]; [21],15 SFU
same,Significant response as percentage of maximal peptide SFU,"[2]; patient seven, max peptide 27 SFU",′′′ (41-70% = ′′′)
same,IFN-γ ELISpot response,"[2]; patient six, 3-5yrs, cut-off 10 SFU",12 SFU
same,Significant response as percentage of maximal peptide SFU,"[2]; patient six, max peptide 13 SFU",+ (>70% = +)
same,IFN-γ ELISpot response,[2]; [22],10 SFU
same,Significant response as percentage of maximal peptide SFU,"[2]; patient ten, max peptide 14.5 SFU",+ (>70% = +)
same,IFN-γ ELISpot response,[2]; [23],112 SFU
same,IFN-γ ELISpot response,[2]; [24],13 SFU
same,IFN-γ ELISpot response,[2]; [25],26 SFU
same,Significant response as percentage of maximal peptide SFU,[2]; [26],′′′ (41-70% = ′′′)
"LQPFPQPELPYPQP [Peptide W02, contains DQ2.5-glia-a1a and a2]",Dominance scores 18+ yrs,[1],58
same,"magnitude of T cell responses, HLA-DQ2.5 homozygous vs heterozygous",[2],significantly greater
same,EC50 compared between age groups,"[2]; 17 children (3-5, 6-10, 11-18 yrs) and four adults, dose curve 0.1-50 ug/ml",a difference was observed between 3-5 yrs and 6-10 yrs
same,Dominance score 3-5yrs (n = 9),[2],74.8
same,Dominance score 6-10yrs (n = 10),[2],56.9
same,Dominance score 11-18yrs (n = 11),[2],59.6
same,Dominance score Mean all ages,[2],63.3
same,dominance hierarchy across all age groupings,[2],most dominant three peptides
same,dominance hierarchy across all age groups,[2],most dominant four peptides
same,response to native vs deamidated form,[2]; all age groups,Deamidation enhanced the response
same,Dominance scores 3-5 yrs,[2],77
same,Dominance scores 6-10 yrs,[2],57
same,Dominance scores 11-18 yrs,[2],60
same,Dominance scores Mean all ages,[2],64
same,IFN-γ ELISpot responses Day 0 prior to vs Day 6 after wheat challenge,"[2]; p<0.05, Kruskal Wallis",Significant gluten-specific responses were observed on Day 6 only
